In patent publication US10160762B2, “6-alkyl dihydropyrazolopyrimidinone compounds as PDE2 inhibitors” (Merck Sharp & Dohme Corp., priority 2015, dated 2018) one finds Ki data, which are given here for 31 compounds.

In this experiment the target is T1, human PDE2A1 (Homo sapiens, UniProt O00408).
T1 construct: GST; purchased BPS Bioscience (San Diego, Calif.) 60020; host or cells: insect cells
As to the kind of experiment: IMAP FP PDE assay, human PDE2A1. Type of experiment: biochemical. Conditions: Lab B; read-out: Human PDE2 Ki (nM) Lab B. Put shortly: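 GST-tagged human PDE2A1 from insect cells; substrate 50 nM FAM-cAMP containing 1000 nM cGMP in Tris pH 7.2/MgCl2/DTT buffer, enzyme giving 20% conversion. 60 min at room temperature, IMAP binding reagent, fluorescence polarization read. Apparent Ki from FP readings using apparent KM 10,000 nM; ten-point 3-fold titrations.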

Structures are written as SMILES.

T1 sequence (O00408 1-920 isoform O00408-2): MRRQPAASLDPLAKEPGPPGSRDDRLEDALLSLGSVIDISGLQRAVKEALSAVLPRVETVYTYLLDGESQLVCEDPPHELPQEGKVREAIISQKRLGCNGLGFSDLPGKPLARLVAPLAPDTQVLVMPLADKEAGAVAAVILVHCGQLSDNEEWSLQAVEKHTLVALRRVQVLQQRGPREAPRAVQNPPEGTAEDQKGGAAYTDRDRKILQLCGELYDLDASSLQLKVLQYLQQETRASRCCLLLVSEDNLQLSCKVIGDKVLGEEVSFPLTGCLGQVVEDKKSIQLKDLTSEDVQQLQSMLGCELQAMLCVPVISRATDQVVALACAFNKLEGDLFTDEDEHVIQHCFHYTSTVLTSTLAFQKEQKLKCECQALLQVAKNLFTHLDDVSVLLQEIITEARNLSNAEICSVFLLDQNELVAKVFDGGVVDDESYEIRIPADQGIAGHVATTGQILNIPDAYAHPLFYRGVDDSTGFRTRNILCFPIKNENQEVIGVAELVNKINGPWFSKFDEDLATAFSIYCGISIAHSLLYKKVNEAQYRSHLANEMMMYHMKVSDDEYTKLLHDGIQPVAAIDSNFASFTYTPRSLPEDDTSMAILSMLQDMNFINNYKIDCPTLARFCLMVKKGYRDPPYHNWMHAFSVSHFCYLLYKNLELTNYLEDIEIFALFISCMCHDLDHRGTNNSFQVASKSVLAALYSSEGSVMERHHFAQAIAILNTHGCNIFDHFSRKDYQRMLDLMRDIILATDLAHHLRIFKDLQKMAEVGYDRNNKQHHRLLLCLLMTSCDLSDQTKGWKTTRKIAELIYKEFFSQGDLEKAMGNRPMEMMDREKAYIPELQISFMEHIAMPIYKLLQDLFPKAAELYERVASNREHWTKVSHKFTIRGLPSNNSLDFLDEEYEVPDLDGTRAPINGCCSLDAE

On to `Cc1nc2c(c(CO)nn2C(c2ccc(C(F)(F)F)cc2)C2(C)CC2)c(=O)[nH]1` (single isomer, unassigned) [Example 24, (R)- or (S)-3-(Hydroxymethyl)-6-methyl-1-((1-methylcyclopropyl)(4-(trifluoromethyl)phenyl)methyl)-1H-pyrazolo[3,4-d]pyrimidin-4(5H)-one], for which the Ki is 1.9 nM.

As for `Cc1nc2c(c(CO)nn2C(c2ccc(OC(F)(F)F)c(F)c2)C2CC2)c(=O)[nH]1` (single isomer, unassigned) [Example 92, (R)- or (S)-1-(Cyclopropyl(3-fluoro-4-(trifluoromethoxy)phenyl)methyl)-3-(hydroxymethyl)-6-methyl-1H-pyrazolo[3,4-d]pyrimidin-4(5H)-one], the Ki was 8.3 nM.

Take `Cc1nc2c(c(CC(F)(F)F)nn2C(c2ccc(C(F)(F)F)cc2)C(C)(C)C)c(=O)[nH]1` (single isomer, unassigned) [Example 57, (S)- or (R)-1-(2,2-Dimethyl-1-(4-(trifluoromethyl)phenyl)propyl)-6-methyl-3-(2,2,2-trifluoroethyl)-1H-pyrazolo[3,4-d]pyrimidin-4(5H)-one]: the inhibition constant (Ki) amounted to 62 nM.

Consider `Cc1nc2c(c(CO)nn2C(C)c2ccc(S(F)(F)(F)(F)F)cc2)c(=O)[nH]1` (single isomer, unassigned) [Example 77], for which the Ki was found to be 3.3 nM.

Consider `Cc1nc2c(c(CF)nn2C(c2ccc(OC(F)(F)F)c(F)c2)C2CC2)c(=O)[nH]1` (single isomer, unassigned) [Example 228, (R)- or (S)-1-(Cyclopropyl(3-fluoro-4-(trifluoromethoxy)phenyl)methyl)-3-(fluoromethyl)-6-methyl-1,5-dihydro-4H-pyrazolo[3,4-d]pyrimidin-4-one], for which the Ki came out at 0.42 nM.

With `CC(C)c1nc2c(c(CO)nn2C(C)c2ccc(C(F)(F)F)cc2)c(=O)[nH]1` (racemic) [Example 296, 3-(Hydroxymethyl)-6-(1-methylethyl)-1-{1-[4-(trifluoromethyl)phenyl]ethyl}-1,5-dihydro-4H-pyrazolo[3,4-d]pyrimidin-4-one], the inhibition constant (Ki) worked out at 39 nM.

On to `COc1cccc(Cc2nc3c(c(CF)nn3C(C)c3ccc(C(F)(F)F)cc3)c(=O)[nH]2)c1` (single isomer, unassigned) [Example 221, (S)- or (R)-3-(Fluoromethyl)-6-(3-methoxybenzyl)-1-(1-(4-(trifluoromethyl)phenyl)ethyl)-1H-pyrazolo[3,4-d]pyrimidin-4(5H)-one], for which the inhibitory constant (Ki) was 1.3 nM.

Regarding `Cc1nc2c(c(C(F)(F)CO)nn2C(C)c2ccc(C(F)(F)F)cc2)c(=O)[nH]1` (single isomer, unassigned) [Example 255], the Ki worked out at 1.6 nM.

On to `Cc1nc2c(c(CO)nn2C(C)c2ccc(OC(F)F)cc2)c(=O)[nH]1` (single isomer, unassigned) [Example 21, (S)- or (R)-1-(1-(4-(Difluoromethoxy)phenyl)ethyl)-3-(hydroxymethyl)-6-methyl-1H-pyrazolo[3,4-d]pyrimidin-4(5H)-one], for which the inhibition constant Ki was 3.5 nM.

Turning to `Cc1nc2c(c(/C=N\O)nn2C(C)c2ccc(C(F)(F)F)cc2)c(=O)[nH]1` (stereo not shown) [Example 251, (Z)-6-Methyl-4-oxo-1-(1-(4-(trifluoromethyl)phenyl)ethyl)-4,5-dihydro-1H-pyrazolo[3,4-d]pyrimidine-3-carbaldehyde oxime], the Ki amounted to 7.2 nM.

Consider `Cc1nc2c(c(CF)nn2C(c2ccc(C(F)(F)F)cc2)C(C)(C)C)c(=O)[nH]1` (single isomer, unassigned) [Example 234, (S)- or (R)-1-(2,2-Dimethyl-1-(4-(trifluoromethyl)phenyl)propyl)-3-(fluoromethyl)-6-methyl-1H-pyrazolo[3,4-d]pyrimidin-4(5H)-one], for which the Ki amounted to 11 nM.

Consider `Cc1nc2c(c(C#N)nn2C(C)c2ccc(C(F)(F)F)cc2)c(=O)[nH]1` (single isomer, unassigned) [Example 252], for which the inhibition constant (Ki) was determined as 16 nM.

For the compound `Cc1nc2c(c(C=O)nn2C(C)c2ccc(C(F)(F)F)cc2)c(=O)[nH]1` (stereo not shown) [Example 248, 6-Methyl-4-oxo-1-(1-(4-(trifluoromethyl)phenyl)ethyl)-4,5-dihydro-1H-pyrazolo[3,4-d]pyrimidine-3-carbaldehyde], the Ki turned out to be 66 nM.

Regarding `Cc1nc2c(c(CC#N)nn2C(C)c2ccc(C(F)(F)F)cc2)c(=O)[nH]1` (single isomer, unassigned) [Example 281], the inhibition constant Ki worked out at 2 nM.

Take `Cc1nc2c(c(CO)nn2C(c2ccc(OC(F)(F)F)cc2)C(C)C)c(=O)[nH]1` (single isomer, unassigned) [Example 84, (R)- or (S)-3-(Hydroxymethyl)-6-methyl-1-(2-methyl-1-(4-(trifluoromethoxy)phenyl)propyl)-1H-pyrazolo[3,4-d]pyrimidin-4(5H)-one]: the inhibitory constant (Ki) came out at 11 nM.

Take `Cc1nc2c(c(CO)nn2C(C)c2ccc(C(F)(F)F)cc2F)c(=O)[nH]1` (single isomer, unassigned) [Example 17, (S)- or (R)-1-(1-(2-Fluoro-4-(trifluoromethyl)phenyl)ethyl)-3-(hydroxymethyl)-6-methyl-1H-pyrazolo[3,4-d]pyrimidin-4(5H)-one]: the Ki came out at 2.1 nM.

As for `Cc1nc2c(c(CO)nn2C(c2ccc(C(C)(C)C)cc2)C2CC2)c(=O)[nH]1` (single isomer, unassigned) [Example 88, (R)- or (S)-1-((4-tert-Butylphenyl)(cyclopropyl)methyl)-3-(hydroxymethyl)-6-methyl-1H-pyrazolo[3,4-d]pyrimidin-4(5H)-one], the Ki came to 45 nM.

Take `Cc1nc2c(c(CO)nn2C(C)c2ccc(SC(F)(F)F)cc2)c(=O)[nH]1` (single isomer, unassigned) [Example 23, (S)- or (R)-3-(Hydroxymethyl)-6-methyl-1-(1-(4-(trifluoromethylthio)phenyl)ethyl)-1H-pyrazolo[3,4-d]pyrimidin-4(5H)-one]: the Ki was determined as 1.1 nM.

On to `Cc1nc2c(c(CC(F)F)nn2C(C)c2ccc(C(F)(F)F)cc2)c(=O)[nH]1` (single isomer, unassigned) [Example 285], for which the Ki was 111 nM.

`Cc1nc2c(c(CO)nn2C2(c3ccc(C(F)(F)F)cc3)CCC2)c(=O)[nH]1` [Example 78, 3-(Hydroxymethyl)-6-methyl-1-(1-(4-(trifluoromethyl)phenyl)cyclobutyl)-1H-pyrazolo[3,4-d]pyrimidin-4(5H)-one]: the Ki is 4.9 nM.

`COCc1nc2c(c(CO)nn2C(C)c2ccc(C(F)(F)F)cc2)c(=O)[nH]1` (single isomer, unassigned) [Example 293]: the Ki worked out at 3.5 nM.

With `Cc1nc2c(c(CO)nn2C(c2ccc(C(F)(F)F)c(F)c2)C(C)C)c(=O)[nH]1` (single isomer, unassigned) [Example 87, (S)- or (R)-1-(1-(3-Fluoro-4-(trifluoromethyl)phenyl)-2-methylpropyl)-3-(hydroxymethyl)-6-methyl-1H-pyrazolo[3,4-d]pyrimidin-4(5H)-one], the Ki came to 3.3 nM.

As to `Cc1nc2c(c(CO)nn2C(c2ccc(OC(F)(F)F)c(F)c2)C2CC2)c(=O)[nH]1` (single isomer, unassigned) [Example 93, (S)- or (R)-1-(Cyclopropyl(3-fluoro-4-(trifluoromethoxy)phenyl)methyl)-3-(hydroxymethyl)-6-methyl-1H-pyrazolo[3,4-d]pyrimidin-4(5H)-one], the inhibitory constant (Ki) stood at 1.7 nM.

`Cc1nc2c(c(CF)nn2C(c2ccc(C(F)(F)F)c(F)c2)C2CC2)c(=O)[nH]1` (single isomer, unassigned) [Example 226, (R)- or (S)-1-(Cyclopropyl(3-fluoro-4-(trifluoromethyl)phenyl)methyl)-3-(fluoromethyl)-6-methyl-1,5-dihydro-4H-pyrazolo[3,4-d]pyrimidin-4-one]: the Ki worked out at 0.32 nM.

As for `Cc1nc2c(c(CF)nn2C(c2ccc(OC(F)(F)F)cc2)C2CC2)c(=O)[nH]1` (single isomer, unassigned) [Example 224, (R)- or (S)-1-(Cyclopropyl(4-(trifluoromethoxy)phenyl)methyl)-3-(fluoromethyl)-6-methyl-1,5-dihydro-4H-pyrazolo[3,4-d]pyrimidin-4-one], the Ki amounted to 0.48 nM.

`Cc1nc2c(c(CO)nn2C(c2ccc(C(F)(F)F)c(F)c2)C2CC2)c(=O)[nH]1` (single isomer, unassigned) [Example 90, (R)- or (S)-1-(Cyclopropyl(3-fluoro-4-(trifluoromethyl)phenyl)methyl)-3-(hydroxymethyl)-6-methyl-1H-pyrazolo[3,4-d]pyrimidin-4(5H)-one]: the Ki was determined as 78 nM.

Regarding `Cc1nc2c(c(CC#N)nn2C(C)c2ccc(C(F)(F)F)cc2)c(=O)[nH]1` (single isomer, unassigned) [Example 280], the Ki is 77 nM.

As to `Cc1nc2c(c(CC(F)F)nn2C(C)c2ccc(C(F)(F)F)cc2)c(=O)[nH]1` (single isomer, unassigned) [Example 286], the Ki came out at 2 nM.

As for `Cc1nc2c(c(CO)nn2C(c2ccc(OC(F)(F)F)cc2)C(C)C)c(=O)[nH]1` (single isomer, unassigned) [Example 85, (S)- or (R)-3-(Hydroxymethyl)-6-methyl-1-(2-methyl-1-(4-(trifluoromethoxy)phenyl)propyl)-1H-pyrazolo[3,4-d]pyrimidin-4(5H)-one], the inhibition constant (Ki) is 0.89 nM.

On to `Cc1nc2c(c(CO)nn2C(c2ccc(C(F)(F)F)c(F)c2)C2CC2)c(=O)[nH]1` (single isomer, unassigned) [Example 91, (S)- or (R)-1-(Cyclopropyl(3-fluoro-4-(trifluoromethyl)phenyl)methyl)-3-(hydroxymethyl)-6-methyl-1H-pyrazolo[3,4-d]pyrimidin-4(5H)-one], for which the Ki turned out to be 1.1 nM.

`Cc1nc2c(c(CCO)nn2C(C)c2ccc(C(F)(F)F)cc2)c(=O)[nH]1` (single isomer, unassigned) [Example 250]: the Ki stood at 1.9 nM.

As a reminder, the Ki is the dissociation constant of the complex between target and ligand, obtained from inhibition or displacement.
